Reference: ChEMBL document CHEMBL6120946, “From Hit to Lead: Discovery of First-In-Class Furanone Glycoside D228 Derived from Chimonanthus salicifolius for the Treatment of Inflammatory Bowel Disease” (J Med Chem, 2024)
pIC50: −log10 of the molar value. Calls of active or inactive are those of the source. The rule behind the calls is not given here.

How the values were obtained:
[1] = system: B-cell line; experiment: Immunosuppressive activity in mouse B-lymphocyte assessed as reduction in LPS-induced cell proliferation incubated for 48 hrs; type: functional, cell-based
[2] = Immunosuppressive activity in mouse T-lymphocyte assessed as reduction in concanavalin A-induced cell proliferation incubated for 48 hrs; type: functional, cell-based
[3] = system: Mus musculus; experiment: Antiinflammatory activity in DSS-induced male C57BL/6 mouse model of inflammatory bowel disease assessed as recovery in colon length at 40 mg/kg/day, po measured after 7 days relative to control; type: functional; settings: time 7 day
[4] = system: Mus musculus; experiment: Antiinflammatory activity in DSS-induced male C57BL/6 mouse model of inflammatory bowel disease assessed as recovery from body weight loss at 40 mg/kg/day, po measured after 7 days; type: functional, organism-based; settings: time 7.0 day
[5] = Cytotoxicity against mouse Splenocyte by MTT assay; type: toxicity, cell-based; settings: splenocytes
[6] = system: Mus musculus; experiment: Antiinflammatory activity in DSS-induced male C57BL/6 mouse model of inflammatory bowel disease assessed as recovery from body weight loss at 40 mg/kg/day, po measured after 7 days relative to control; type: functional; settings: time 7 day
[7] = system: Mus musculus; experiment: Antiinflammatory activity in DSS-induced male C57BL/6 mouse model of inflammatory bowel disease assessed as reduction in weight loss at 7.5 to 15 mg/kg/day, po via gavage measured upto 14 days; type: functional, organism-based; settings: dose 7.5-15 mg/kg/day, time <= 14.0 day
[8] = system: Mus musculus; experiment: Antiinflammatory activity in DSS-induced male C57BL/6 mouse model of inflammatory bowel disease assessed as increase in colon length at 7.5 mg/kg/day, po via gavage measured upto 14 days relative to control; type: functional; settings: time <= 14 day
[9] = system: Mus musculus; experiment: Antiinflammatory activity in DSS-induced male C57BL/6 mouse model of inflammatory bowel disease assessed as reduction of bloody stool at 7.5 to 15 mg/kg/day, po via gavage measured upto 14 days; type: functional, organism-based; settings: dose 7.5-15 mg/kg/day, time <= 14.0 day
[10] = system: Mus musculus; experiment: Antiinflammatory activity in DSS-induced male C57BL/6 mouse model of inflammatory bowel disease assessed as reduction in diarrhea at 7.5 to 15 mg/kg/day, po via gavage measured upto 14 days; type: functional, organism-based; settings: dose 7.5-15 mg/kg/day, time <= 14.0 day
[11] = system: Mus musculus; experiment: Antiinflammatory activity in DSS-induced male C57BL/6 mouse model of inflammatory bowel disease assessed as increase in colon length at 15 mg/kg/day, po via gavage measured upto 14 days relative to control; type: functional; settings: time <= 14 day
[12] = Selectivity ratio of CC50 for cytotoxicity against mouse Splenocyte to IC50 for immunosuppressive activity in mouse T-lymphocyte; type: toxicity; settings: splenocytes (CC50) and T-lymphocytes (IC50)
[13] = Selectivity ratio of CC50 for cytotoxicity against mouse Splenocyte to IC50 for immunosuppressive activity in mouse B-lymphocyte; type: toxicity; settings: splenocytes (CC50) and B-lymphocytes (IC50)

SMILES	pIC50 [1]	pIC50 [2]	Activity [3]	Activity [4]	CC50 [5]	Activity [6]	Activity [7]	Activity [8]	Activity [9]	Activity [10]	Activity [11]	selectivity ratio [12]	selectivity ratio [13]
CC1=C(O)C(=O)C(=C2CCCCC2)O1	< 4.00	< 4.00	–	–	–	–	–	–	–	–	–	–	–
CCOC(=O)OC[C@H]1O[C@@H](OC2=C(C)OC(=C(C)C)C2=O)[C@H](O)[C@@H](O)[C@@H]1O	< 4.00	< 4.00	13.3%	Active	182 µM	47.6%	–	–	–	–	–	–	–
CC1=C(O)C(=O)C(=C2CCCC2)O1	< 4.00	< 4.00	–	–	248 µM	–	Active	99.2%	Active	Active	98.4%	–	–
CC(=O)OC[C@H]1O[C@@H](OC2=C(C)OC(=C3CCOCC3)C2=O)[C@H](OC(C)=O)[C@@H](OC(C)=O)[C@@H]1OC(C)=O	4.58	4.36	30.5%	Active	71.9 µM	26.3%	–	–	–	–	–	1.87	3.11
